In patent publication US11066414B2, “Cot modulators and methods of use thereof” (Gilead Sciences, Inc., priority 2015, dated 2021):

Key:
TNFα = assay: Cot Monocyte TNFα Cell Based Assay; conditions: Homo sapiens, Monocyte, read-out: EC50 TNF, LPS-stimulated human monocytes, TNFα
Human Cot = Human Cot (Homo sapiens (Human), UniProt P41279); assay: High Throughput Cot Biochemical Assay; conditions: IC50 HTRF, Cot HTRF (TR-FRET) biochemical assay
Sequence of Human Cot (P41279 30-397): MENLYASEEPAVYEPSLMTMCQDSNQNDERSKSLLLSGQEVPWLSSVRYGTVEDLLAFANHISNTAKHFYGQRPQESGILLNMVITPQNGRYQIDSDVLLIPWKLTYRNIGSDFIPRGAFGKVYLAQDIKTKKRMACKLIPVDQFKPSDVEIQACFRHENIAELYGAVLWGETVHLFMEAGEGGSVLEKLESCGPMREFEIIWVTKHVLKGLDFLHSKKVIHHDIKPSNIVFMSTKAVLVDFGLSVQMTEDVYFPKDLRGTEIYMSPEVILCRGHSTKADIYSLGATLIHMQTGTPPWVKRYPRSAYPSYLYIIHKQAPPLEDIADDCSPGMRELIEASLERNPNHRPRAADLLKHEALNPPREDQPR

| Compound | EC50 (TNFα) | IC50 (Human Cot) |
| --- | --- | --- |
| Cc1nc(F)ccc1[C@H](Nc1cc(Cl)c2ncc(C#N)c(NCC(C)(C)C(F)(F)F)c2c1)c1cn(C2(C(F)(F)F)CC2)nn1 [Example 721, (S)-8-chloro-6-(((6-fluoro-2-methylpyridin-3-yl)(1-(1-(trifluoromethyl)cyclopropyl)-1H-1,2,3-triazol-4-yl)methyl)amino)-4-((3,3,3-trifluoro-2,2-dimethylpropyl)amino)quinoline-3-carbonitrile] | 109 nM | 6 nM |
| Cc1nc(F)ccc1[C@H](Nc1cc(Cl)c2ncc(C#N)c(NCC(C)(C)S(C)(=O)=O)c2c1)c1cn(C2(C(F)(F)F)CC2)nn1 [Example 722, (S)-8-chloro-6-(((6-fluoro-2-methylpyridin-3-yl)(1-(1-(trifluoromethyl)-cyclopropyl)-1H-1,2,3-triazol-4-yl)methyl)amino) -4-((2-methyl-2-(methylsulfonyl)propyl)amino)-quinoline-3-carbonitrile] | 403 nM | 43 nM |
| Cc1nc(F)ccc1[C@H](Nc1cc(Cl)c2ncc(C#N)c(NCC(C)(C)C(F)(F)F)c2c1)c1cn(C2(C(F)F)CC2)nn1 [Example 727, (S)-8-chloro-6-(((1-(1-(difluoromethyl)cyclopropyl)-1H-1,2,3-triazol-4-yl)(6-fluoro-2-methylpyridin-3-yl)methyl)amino)-4-((3,3,3-trifluoro-2,2-dimethylpropyl)amino)quinoline-3-carbonitrile] | 48 nM | 3 nM |
| Cn1cnc2c([C@H](Nc3cc(Cl)c4ncc(C#N)c(NCC(C)(C)C)c4c3)c3cn(C45CC(C4)C5)nn3)cccc2c1=O [Example 728, (S)-6-(((1-(bicyclo[1.1.1]pentan-1-yl)-1H-1,2,3-triazol-4-yl)(3-methyl-4-oxo-3,4-dihydroquinazolin-8-yl)methyl)amino)-8-chloro-4-(neopentylamino)quinoline-3-carbonitrile] | 154 nM | 7 nM |
| COc1ccc([C@H](Nc2cc(Cl)c3ncc(C#N)c(NCC(C)(C)C)c3c2)c2cn(C3(C(F)F)CC3)nn2)c(C)n1 [Example 729, (S)-8-chloro-6-(((1-(1-(difluoromethyl)cyclopropyl)-1H-1,2,3-triazol-4-yl)(6-methoxy-2-methylpyridin-3-yl)methyl)amino)-4-(neopentylamino)quinoline-3-carbonitrile] | 108 nM | 5 nM |
| Cn1ccc2c([C@H](Nc3cc(Cl)c4ncc(C#N)c(NCC5(C(F)(F)F)CCC5)c4c3)c3cn(C4(C(F)F)CC4)nn3)cccc2c1=O [Example 730, (S)-8-chloro-6-(((1-(1-(difluoromethyl)cyclopropyl)-1H-1,2,3-triazol-4-yl)(2-methyl-1-oxo-1,2-dihydroisoquinolin-5-yl)methyl)amino)-4-(((1-(trifluoromethyl)cyclobutyl)methyl)-amino)quinoline-3-carbonitrile] | 89 nM | 10 nM |
| Cc1nc(F)ccc1[C@H](Nc1cc(Cl)c2ncc(C#N)c(NCC3(C(F)(F)F)CCC3)c2c1)c1cn(C2(C(F)F)CC2)nn1 [Example 731, (S)-8-chloro-6-(((1-(1-(difluoromethyl)cyclopropyl)-1H-1,2,3-triazol-4-yl)(6-fluoro-2-methylpyridin-3-yl)methyl)amino)-4-(((1-(trifluoromethyl)cyclobutyl)-methyl)amino)quinoline-3-carbonitrile] | 179 nM | 11 nM |
| Cn1ccc2c([C@H](Nc3cc(Cl)c4ncc(C#N)c(NCC(C)(C)C)c4c3)c3cn(C45CC(C4)C5)nn3)cccc21 [Example 735, (S)-6-(((1-(bicyclo[1.1.1]pentan-1-yl)-1H-1,2,3-triazol-4-yl)(1-methyl-1H-indol-4-yl)methyl)amino)-8-chloro-4-(neopentylamino)quinoline-3-carbonitrile] | 478 nM | 47 nM |
| CN1Cc2c(cccc2[C@H](Nc2cc(Cl)c3ncc(C#N)c(NCC(C)(C)C)c3c2)c2cn(C3(C(F)F)CC3)nn2)C1=O [Example 737, (S)-8-chloro-6-(((1-(1-(difluoromethyl)cyclopropyl)-1H-1,2,3-triazol-4-yl)(2-methyl-1-oxoisoindolin-4-yl)methyl)amino)-4-(neopentylamino)quinoline-3-carbonitrile] | 91 nM | 3 nM |
| CC(C)(C)CNc1c(C#N)cnc2c(Cl)cc(N[C@H](c3cn(C4CC4)nn3)c3csc4cnccc34)cc12 [Example 738, (S)-8-chloro-6-(((1-cyclopropyl-1H-1,2,3-triazol-4-yl)(thieno[2,3-c]pyridin-3-yl)methyl)amino)-4-(neopentylamino)quinoline-3-carbonitrile] | 40 nM | 2 nM |
| Cc1nc(F)ccc1[C@H](Nc1cc(Cl)c2ncc(C#N)c(NCC34CC(C3)C4)c2c1)c1cn(C2(C(F)F)CC2)nn1 [Example 739, (S)-4-((bicyclo[1.1.1]pentan-1-ylmethyl)amino)-8-chloro-6-(((1-(1-(difluoromethyl)cyclopropyl)-1H-1,2,3-triazol-4-yl)(6-fluoro-2-methylpyridin-3-yl)methyl)amino)quinoline-3-carbonitrile] | 254 nM | 21 nM |

Now from value to compound:

| EC50 (TNFα) | IC50 (Human Cot) | Compound |
| --- | --- | --- |
| 24 nM | 2 nM | Cc1nc(F)ccc1[C@H](Nc1cc(Cl)c2ncc(C#N)c(NCC(C)(C)C(F)(F)F)c2c1)c1cn(C23CC(C2)C3)nn1 [Example 719, (S)-6-(((1-(bicyclo[1.1.1]pentan-1-yl)-1H-1,2,3-triazol-4-yl)(6-fluoro-2-methylpyridin-3-yl)methyl)amino)-8-chloro-4-((3,3,3-trifluoro-2,2-dimethylpropyl)amino)quinoline-3-carbonitrile] |
| 35 nM | 2 nM | Cc1nc(F)ccc1[C@H](Nc1cc(Cl)c2ncc(C#N)c(NCC(C)(C)C(F)(F)F)c2c1)c1cn(C2(C)CC2)nn1 [Example 720, (S)-8-chloro-6-(((6-fluoro-2-methylpyridin-3-yl)(1-(1-methylcyclopropyl)-1H-1,2,3-triazol-4-yl)methyl)amino)-4-((3,3,3-trifluoro-2,2-dimethylpropyl)amino)-quinoline-3-carbonitrile] |
| 84 nM | 4 nM | CC[C@@H](Nc1c(C#N)cnc2c(Cl)cc(N[C@H](c3cn(C4(C(F)F)CC4)nn3)c3ccc(F)nc3C)cc12)c1ccccc1 [Example 723, 8-chloro-6-(((S)-(1-(1-(difluoromethyl)cyclopropyl)-1H-1,2,3-triazol-4-yl)(6-fluoro-2-methylpyridin-3-yl)methyl)amino)-4-(((R)-1-phenyl-propyl)amino)quinoline-3-carbonitrile] |
| 44 nM | 3 nM | Cn1ccc2c([C@H](Nc3cc(Cl)c4ncc(C#N)c(NCC(C)(C)C(F)(F)F)c4c3)c3cn(C4(C(F)F)CC4)nn3)cccc2c1=O [Example 724, (S)-8-chloro-6-(((1-(1-(difluoromethyl)cyclopropyl)-1H-1,2,3-triazol-4-yl)(2-methyl-1-oxo-1,2-dihydroisoquinolin-5-yl)methyl)amino)-4-((3,3,3-trifluoro-2,2-dimethylpropyl)amino)quinoline-3-carbonitrile] |
| 127 nM | 4 nM | CC(C)(CNc1c(C#N)cnc2c(Cl)cc(N[C@H](c3cn(C4(C(F)F)CC4)nn3)c3cccc4c(=O)[nH]ccc34)cc12)C(F)(F)F [Example 726, (S)-8-chloro-6-(((1-(1-(difluoromethyl)cyclopropyl)-1H-1,2,3-triazol-4-yl)(1-oxo-1,2-dihydroisoquinolin-5-yl)methyl)amino)-4-((3,3,3-trifluoro-2,2-dimethylpropyl)amino)quinoline-3-carbonitrile] |
| 779 nM | 11 nM | Cc1c([C@H](Nc2cc(Cl)c3ncc(C#N)c(NCC(C)(C)C)c3c2)c2cn(C3(C(F)F)CC3)nn2)ccc(=O)n1C [Example 732, (S)-8-chloro-6-(((1-(1-(difluoromethyl)cyclopropyl)-1H-1,2,3-triazol-4-yl)(1,2-dimethyl-6-oxo-1,6-dihydropyridin-3-yl)methyl)amino)-4-(neopentylamino)quinoline-3-carbonitrile] |
| 835 nM | 42 nM | Cc1nc(F)ccc1[C@H](Nc1cc(Cl)c2ncc(C#N)c(NCC3C(C)(C)C3(C)C)c2c1)c1cn(C2(C(F)F)CC2)nn1 [Example 733, (S)-8-chloro-6-(((1-(1-(difluoromethyl)cyclopropyl)-1H-1,2,3-triazol-4-yl)(6-fluoro-2-methylpyridin-3-yl)methyl)amino)-4-(((2,2,3,3-tetramethylcyclopropyl)methyl)-amino)quinoline-3-carbonitrile] |
| 313 nM | 41 nM | CC(C)(C)CNc1c(C#N)cnc2c(Cl)cc(N[C@H](c3cn(C4(C(F)(F)F)CC4)nn3)c3cccc4nccnc34)cc12 [Example 734, (S)-8-chloro-4-(neopentylamino)-6-((quinoxalin-5-yl(1-(1-(trifluoromethyl)-cyclopropyl)-1H-1,2,3-triazol-4-yl)methyl)amino)quinoline-3-carbonitrile] |
| 645 nM | 117 nM | Cn1ccc2c([C@H](Nc3cc(Cl)c4ncc(C#N)c(NCC(C)(C)C)c4c3)c3cn(C4(C(F)F)CC4)nn3)cccc21 [Example 736, (S)-8-chloro-6-(((1-(1-(difluoromethyl)cyclopropyl)-1H-1,2,3-triazol-4-yl)(1-methyl-1H-indol-4-yl)methyl)amino)-4-(neopentylamino)quinoline-3-carbonitrile] |
| 311 nM | 45 nM | Cc1nc(F)ccc1[C@H](Nc1cc(Cl)c2ncc(C#N)c(NCC34CC(C3)C4)c2c1)c1cn(C2(C(F)(F)F)CC2)nn1 [Example 740, (S)-4-((bicyclo[1.1.1]pentan-1-ylmethyl)amino)-8-chloro-6-(((6-fluoro-2-methylpyridin-3-yl)(1-(1-(trifluoromethyl)cyclopropyl)-1H-1,2,3-triazol-4-yl)methyl)amino)quinoline-3-carbonitrile] |
